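48-hour exposure; five concentrations; linearly interpolated endpoints. At the GI50, growth is halved. TGI denotes the concentration required for complete inhibition of growth.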
Tests used:
Assay in all cases: inhibition of tumour cell growth, NCI panel, 48 h
[1] = tested on: UO-31 renal
[2] = tested on: RXF 393 renal
[3] = tested on: HL-60(TB) leukemia
[4] = tested on: HCC-2998 colon
[5] = tested on: A498 renal
[6] = tested on: HT29 colon
[7] = tested on: PC-3 prostate
[8] = tested on: 786-0 renal
[9] = tested on: HOP-92 NSCLC

With `Cc1ccc(C(=O)Nc2ccc(CP(=O)(O)O)cc2)cc1NC(=O)c1cccc(N)c1` the TGI [1] was over 100 µM, the TGI [2] was over 100 µM and the TGI [3] was over 100 µM. For the same compound, the TGI [4] was over 100 µM, the TGI [5] was over 100 µM and the TGI [6] was over 100 µM. For the same compound, the TGI [7] was over 100 µM, the TGI [8] was over 100 µM and the TGI [9] was over 100 µM.

`COc1ccc2c3c(Nc4cccc(/C(C)=N\O)c4)[nH]c4ccccc4c-3c(N=O)c2c1` was tested, and the GI50 [1] was 52.9 µM, the TGI [1] was over 100 µM and the GI50 [3] was 16.9 µM. It also gave a TGI [3] of over 100 µM, a GI50 [4] of 10.6 µM and a TGI [4] of 22.4 µM. For the same compound, the GI50 [5] was 78.1 µM, the TGI [5] was over 100 µM and the GI50 [6] was 18.3 µM. It also gave a TGI [6] of over 100 µM, a GI50 [7] of 20.5 µM and a TGI [7] of 65.4 µM.

`O=c1c2ccccc2[nH]n1Cc1ccccc1` gave a TGI [1] of over 100 µM, a TGI [2] of over 100 µM and a TGI [3] of over 100 µM. The TGI [4] was over 100 µM, the TGI [5] was over 100 µM and the TGI [6] was over 100 µM. For the same compound, the TGI [7] was over 100 µM, the TGI [8] was over 100 µM and the TGI [9] was over 100 µM.

Compound `COc1cc(OC)cc(-c2ccc(-c3ccc(C(=N)N)cn3)o2)c1` has a GI50 [1] of 1.59 µM, a TGI [1] of 3.06 µM and a GI50 [3] of 2.12 µM. For the same compound, the TGI [3] was 4.38 µM, the GI50 [5] was 1.22 µM and the TGI [5] was 2.51 µM. The GI50 [7] was 1.65 µM, the TGI [7] was 3.14 µM and the GI50 [9] was 1.42 µM. For the same compound, the TGI [9] was 2.87 µM.

`O=C1c2ccccc2C(=O)N1CCSCC(CO)SCCN1C(=O)c2ccccc2C1=O` (configuration not stated) showed a TGI [1] of over 100 µM, a TGI [2] of over 100 µM and a TGI [3] of 50.5 µM. The TGI [4] was over 100 µM, the TGI [5] was over 100 µM and the TGI [6] was over 100 µM. It also gave a TGI [7] of over 100 µM, a TGI [8] of over 100 µM and a TGI [9] of over 100 µM.

Work on `Oc1ccc([C@H]2c3c(O)cc(O)cc3C3c4c(cc(O)cc4[C@@H]2[C@H]2c4cc(O)cc5c4C(c4cc(O)cc(O)c4[C@@H]2c2ccc(O)cc2)[C@@H](c2ccc(O)cc2)O5)O[C@@H]3c2ccc(O)cc2)cc1` (some centres not stated) yielded a TGI [2] of 0.428 µM, a TGI [3] of over 100 µM and a TGI [6] of over 100 µM. It also gave a TGI [7] of over 100 µM and a TGI [8] of over 100 µM.

`Cc1cccc(Br)[n+]1[O-]` was tested, and the TGI [1] was over 100 µM, the TGI [2] was over 100 µM and the TGI [6] was over 100 µM. For the same compound, the TGI [7] was over 100 µM, the TGI [8] was over 100 µM and the TGI [9] was over 100 µM.

For `CCOC(=O)NN(C(=O)OCC)C(C(=O)C1=CCCCC1)N(NC(=O)OCC)C(=O)OCC`, the TGI [1] was over 100 µM, the TGI [2] was over 100 µM and the TGI [4] was over 100 µM. The TGI [5] was over 100 µM, the TGI [6] was over 100 µM and the TGI [7] was over 100 µM. It also gave a TGI [8] of over 100 µM and a TGI [9] of over 100 µM.

Compound `CCOC(=O)/C=C(\C(=O)OCC)n1ccc(=O)n(Cc2cnnn2CCCCOC(C)=O)c1=O` has a TGI [1] of 36.5 µM, a TGI [2] of 2.16 µM and a TGI [4] of 35.5 µM. The TGI [5] was 37.6 µM, the TGI [6] was 23.5 µM and the TGI [7] was 30.8 µM. It also gave a TGI [8] of over 37.5 µM and a TGI [9] of 5.63 µM.

In the case of `CC(=O)Nc1ccc2nc(-c3ccccn3)c(-c3ccccn3)nc2c1`, the TGI [1] is reported as over 100 µM, the TGI [2] is reported as over 100 µM and the TGI [3] is reported as over 100 µM. For the same compound, the TGI [4] was over 100 µM, the TGI [5] was over 100 µM and the TGI [7] was over 100 µM. It also gave a TGI [8] of over 100 µM and a TGI [9] of over 100 µM.

With `O=C1CSC(c2c[nH]c3ccccc23)N1c1ccc(Cl)cc1` (configuration not stated) the TGI [1] was over 100 µM, the TGI [2] was over 100 µM and the TGI [3] was over 100 µM. It also gave a TGI [4] of over 100 µM, a TGI [5] of over 100 µM and a TGI [6] of over 100 µM. For the same compound, the TGI [8] was over 100 µM and the TGI [9] was over 100 µM.
